The values that follow come from PMC8776894 (Communications Biology, 2022).

Several values for one entry are separate records, joined by “and”; a condition that tells them apart may be missing. Identical values can stand only once.

A short description of data set [1]: VK stability in PBS (HPLC). It counts as physicochemical. To be noted: pH 7.4, 37 °C, 750 rpm, 120 min, VK 0.735 mM (Fig. 1 legend 73.5 nM), HPLC-UV 215 nm, peak area relative to 0 min, at least triplicate. As to the method: (§1) Proteolytic degradation of peptide-based drugs is generally considered as the main defect to limit systemic therapeutic applications. Therefore, high-performance liquid chromatography (HPLC) was used to assess the stability of VK in PBS or plasma at physiological pH (7.4) and temperature (37 °C). […] For neuropharmacology, crossing the BBB is a remarkable challenge, and VK was labeled with FITC in the N-terminus. FITC-labeled VK was then administered to stroke mice. After 30 min, these mice were imaged by an in vivo imaging system. […] Brains were collected at 0, 30, 60, 90, and 120 min and the distribution of VK was observed. […] To further evaluate whether VK was a cell-penetrating peptide, the oxygen-glucose deprivation/reoxygenation (OGD/R) model simulated I/R […] was established in HT22 hippocampal neuron cells and FITC-labeled VK was incubated for 120 min.
(§2) VK in PBS or plasma was detected by quantifying the peak areas relative to the initial peak areas (0 min). All stability tests were performed at least in triplicate.

A short description of data set [2]: VK stability in plasma (HPLC). The format is in vitro ADME. To be noted: plasma (species not given), pH 7.4, 37 °C, 750 rpm, at 120 min; VK 0.735 mM (Fig. 1 legend 73.5 nM); HPLC-UV 215 nm, peak area relative to 0 min; at least triplicate. As to the method: as §1, §2
The next data set deals with MCAO/R mice. The data set is described as follows: Longa test. It counts as in vivo, mouse. An excerpt:
Mice were graded on a 5-point scale, which was modified from the Longa score.

Data set [3] deals with MCAO/R mice, brain homogenate. The data set is described as follows: Biochemical kits, energy metabolism in brain (ATP, lactic acid). It counts as in vivo, mouse. The procedure:
Mice were sacrificed under ether anesthesia 3 days after stroke. The brain was collected, weighed, and placed in a homogenizer for homogenization. Using 0.9% normal saline (NS) as a homogenization medium, a 10% tissue homogenate was prepared, centrifuged at 3500 rpm for 10 min, and the supernatant was taken. […] Kits for ATP, glutamic acid, glutathione, lactic acid, LPO, MDA, and SOD were purchased from Nanjingjiancheng Bioengineering Institute, and were measured as previously described for specification.

In the next data set the test system is HT22 cells (OGD/R). Description: Seahorse O2 consumption rate (OCR). The format is cell-based, mouse. Conditions: dose-dependent. As to the method: HT22 cells were counted and plated at 8000 cells per well in a Seahorse XF96 Cell Culture Microplate for all experiments (Agilent). They were then treated with VK (0.0735 or 0.735 μM) for 24 h. […] Next, HT22 cells were washed after 24 h of incubation and were incubated in a 0% CO2 chamber at 37 °C for 1 h, before being placed into a Seahorse XFe96 Analyzer (Agilent). In OCR experiment, HT22 cells were treated, with 2 μM of oligomycin, 5 μM of FCCP, and 1 μM of rotenone and antimycin, respectively; to assess ECAR, they were treated with 1 μM of rotenone and antimycin and 50 mM of 2-DG. All OCR and ECAR data were normalized to cell number per well using WAVE (Agilent).

The next data set concerns BV2 cells (OGD/R). The data set is described as follows: qRT-PCR of proinflammatory mediators. Conditions: RT-PCR. It counts as cell-based, mouse.
Data set [4] deals with IL-1β, TNF-α, IL-6, IL-8, IL-10 in ischemic cortex. Description: Cytokine ELISA in ischemic cortex. It counts as in vivo, mouse. Conditions: MCAO/R mice, 48 h. As to the method:
Mice were decapitated under anesthesia at 48 h after MCAO/R. The IL-1β (Cat# 88-5019-88), TNF-α (Cat# 88-7324-22), IL-6 (Cat# 88-7064-88), and IL-8 (Cat# 88-8086-22) were purchased from Thermo Fisher Scientific. The levels of these proteins were measured by enzyme-linked immune sorbent assays (ELISA) kits, according to the manufacturer’s recommendations.

The test system of data set [5] is microglia in brain of MCAO/R mice. Description: IBA1 staining of microglia (IHC, immunofluorescence). The format is in vivo, mouse.
For data set [6], the system named is CD45+F4/80+CD11b+MHCII+ microglia. Description: Flow cytometry of primary microglia from brain. Conditions: MCAO/R mice, IF. It counts as in vivo, mouse. As to the method:
Brain samples were collected in sham or MCAO mice, digested with collagenase IV and DNase, and filtered with sterile cell strainers (Biologix, 70 µm). Single-cell suspensions were prepared after the removal of red blood cells by ammonium-chloride-potassium (ACK) lysis buffer and isolated leukocytes in brains by 30%, 37%, and 70% Percoll (GE Healthcare) density gradient centrifugation, respectively. Cell numbers were counted by a Coulter counter (Thermo Fisher). Cells were washed with buffer (PBS with 0.5% bovine serum albumin and 0.02% sodium azide) three times and subsequently stained with fluorochrome-conjugated monoclonal antibodies: PE Rat anti-Mouse CD45 (553081, BD Biosciences), FITC anti-mouse F4/80 antibody (123108, Biolegend), PerCP-Cyanine5.5 CD11b antibody (45-0112-82, Invitrogen), and APC anti-mouse I-A/I-E antibody (107614, Biolegend). Samples were analyzed using Flow Cytometry (CytoFLEX S). Subsequent analysis was performed with FlowJo software (Tree Star Inc., San Carlos, CA, USA). Total microglia were identified as CD45^+F4/80^+CD11b^+, M1-like microglia were identified as CD45 + F4/80 + CD11b + MHCII + .

Data set [7] concerns neurons in brain of MCAO/R mice. The data set is described as follows: NeuN immunohistochemistry. The format is in vivo, mouse.
Data set [8] concerns neurons in cortex and hippocampus of MCAO/R mice. Description: Nissl staining. It counts as in vivo, mouse. The procedure:
Mice were anesthetized at 48 h after MCAO/R. Brain samples (bregma −2.06–1.94 mm) were collected and fixed by 4% paraformaldehyde for 12–18 h. Following sequential dehydration by 10%, 20%, and 30% sucrose, brains were put in frozen section embedding medium (SAKURA Tissue-Tek O.C.T. Compound, Japan) and cut into […] sections at the level of the frontal cortex (bregma: 1.0 to −1.94 mm) using a cryostat microtome (Leica CM1950). The sections were subsequently stained with Nissl staining.

Data set [9] deals with HT22 hippocampal neuron cells. Description: CCK-8 cytotoxicity in HT22 cells. To be noted: CCK8 assay.

With “Gly-Arg-Pro-Hyp-Gly-Phe-Ser-Pro-Phe-Arg-Ile-Asp [VK, Vespakinin-M]”, the “degradation rate of VK in PBS” value in [1] was determined as 62.4%. Besides, in data set [2], the “degradation of VK in plasma” value is on record as “completely degraded”. The “Longa test score (Fig.2e)” value in the data set with MCAO/R mice (0.5d, VK 150 µg/kg i.p., individual animals) was 4 and 3 (2×) and 2 (3×); in the data set on MCAO/R mice (0.5d, VK 300 µg/kg i.p., individual animals), 2 (3×) and 3 (2×) and 4; in the data set with MCAO/R mice (1d, VK 150 µg/kg i.p., individual animals) it was 3 and 2 (3×) and 1 (2×); in the data set on MCAO/R mice (1d, VK 300 µg/kg i.p., individual animals), 2 (3×) and 3 (2×) and 1; with MCAO/R mice (3d, VK 150 µg/kg i.p., individual animals), 2 (2×) and 1 (4×); with MCAO/R mice (3d, VK 300 µg/kg i.p., individual animals), 1 (2×) and 2 (4×). Besides, the “Longa test score (Fig.2e)” value in the data set on MCAO/R mice (7d, VK 150 µg/kg i.p., individual animals) is 2 and 1 (5×); in the data set on MCAO/R mice (7d, VK 300 µg/kg i.p., individual animals) it was 1 (3×) and 2 (3×). Besides, the “neurological deficits, Longa test, vs vehicle” value with MCAO/R mice (MCAO/R mice, VK 150 and 300 µg/kg i.p.) is listed as “improved neurological deficits”. For the same substance, the Fig8g neurological score in the data set on MCAO/R mice (VK alone or with B1R / B2R blockade, individual animals, n = 5, score and time not given) was 1 and 2 and 0. The Fig8f neurological score in the data set on MCAO/R mice (VK alone or with B1R / B2R blockade, individual animals, n = 6, score and time not given) is 1 and 2. Besides, the “LD content in brain vs vehicle” value in data set [3] is recorded as “lower LD content”. In data set [3] (VK-treated groups), the “ATP activity in brain vs vehicle” value is recorded as “increased ATP activity”. Further, the “mitochondrial oxygen consumption rate in neurons” value in the data set on HT22 cells (OGD/R) is on record as “accelerated the mitochondrial oxygen consumption rate”. The “OGD/R-increased expression of proinflammatory cytokines in BV2 cells” value in the data set on BV2 cells (OGD/R) is reported as “remarkably blocked these effects”. For the same substance, the “IL-10 level in ischemic cortex vs vehicle” value in data set [4] is recorded as “increase in IL-10 levels”. Also, in data set [4] (VK 150 and 300 µg/kg), the “IL-1β, TNF-α, IL-6 and IL-8 levels in cortex of the ischemic hemisphere vs vehicle” value was “decreased IL-1β, TNF-α, IL-6, and IL-8 levels”. Moreover, the “I/R-induced elevation of IBA1 expression in cerebral cortex” value in [5] was “greatly blunted”. For the same substance, the activation of microglia result in [6] is “suppressed the excessive activation of microglia”. Also, the “number of NeuN-positive cells” value in data set [7] is on record as “greater than that in the vehicle-treated group”. Also, in [8], the “neuron morphology, Nissl staining” value was “morphologically intact neurons were broadly seen”. Moreover, in [9], the “concentrations at which VK inhibited growth of HT22 cells” value lay within 73.5 to 735 µM.
